Literature values in patent US20240398745A1, “COMPOSITION AND METHODS OF TREATMENT USING […] - ENHANCED SUPPLEMENTATION” (Xygenyx Inc., priority 2023, published 2024).
Square brackets hold non-standard residues; d marks the D form. Peptide text beside a SMILES is read from it. Cit = NC(=O)NCCC[C@H](N)C(=O)O

Assays:
[1] = system: skin; conditions: topical formulations, within four weeks of treatment
[2] = in vivo
[3] = system: skin; conditions: topical, concentrations 0.5-5%
[4] = α-tocopherol taken as 1.0
[5] = even when dietary intake occurs in equal portions
[6] = system: wide dynamic range neurons in the ventroposterolateral nucleus of the thalamus; conditions: believed
[7] = in vivo; remark: listed apart in the source

CC[C@H](C)[C@H](NC(=O)[C@H](CC(=O)O)NC(=O)[C@@H](N)CCCCN)C(=O)N[C@@H](CCCNC(N)=O)C(N)=O [tripeptide-10 citrulline, Tripeptide-10 citrulline] (H-KDI[Cit]-NH2)
improvement of suppleness [1]: ≤ 54%

HGH: hormone comprising a peptide chain that is synthesized in the pituitary gland
biological half-life [2]: 10-20 minutes

C=CCCCCCCCCC(=O)N[C@@H](Cc1ccccc1)C(=O)O [UP, Undecylenoyl phenylalanine]
time of treatment to skin lightening effects [3]: ≥ 7 days

Cc1cc(O)cc2c1O[C@](C)(CCC[C@H](C)CCC[C@H](C)CCCC(C)C)CC2 [δ-tocopherol]
relative biological activity [4]: 0.03

Cc1c(O)cc2c(c1C)O[C@](C)(CCC[C@H](C)CCC[C@H](C)CCCC(C)C)CC2 [γ-tocopherol]
concentration in vivo relative to α-tocopherol [5]: roughly 10%
relative biological activity [4]: 0.1

CCCCCc1cc(O)c2c(c1)OC(C)(C)C1CCC(C)=CC21 (stereo not drawn) [THC, Δ-9-tetrahydrocannabinol]
power in mediating pain relative to morphine [6]: ten times more powerful than morphine

Cc1c(C)c2c(c(C)c1O)CC[C@@](C)(CCC[C@H](C)CCC[C@H](C)CCCC(C)C)O2 [α-tocopherol]
reduction of risk of coronary disease (dietary supplementation, doses up to 400 IU/day): up to 34%
reduction of risk of developing neurodegenerative diseases such as Alzheimer's Syndrome or dementia (dietary supplementation, doses up to 400 IU/day, controlled trials): ≤ 24%
reduction in the development of age-related cataracts (in combination with 10-20 mg β-carotene and 400-500 mg vitamin C, doses around 400-500 IU): 23%

Cc1cc(O)c(C)c2c1O[C@](C)(CCC[C@H](C)CCC[C@H](C)CCCC(C)C)CC2 [β-tocopherol]
relative biological activity [4]: 0.5

CCNC(=O)CC[C@H](N)C(=O)O [Theanine]
dose generally considered safe and well-tolerated [7]: up to 400 mg per day
